Experimental data from patent publication US8299111B2, “Compounds which modulate the CB2 receptor” (Boehringer Ingelheim International GmbH, priority 2006, dated 2012).

Target: T1, human CB2R (Homo sapiens, UniProt P34972)
T1 construct: host or cells: CHO cells
Assay: CB2R mediated modulation of cAMP synthesis
Assay type: cell-based
Conditions: found through the use of the above described assays (binding and cAMP); CHO cells expressing human CB2R, forskolin-stimulated cAMP
Outline: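 EC50 values reflect inhibition of cAMP made in response to 10 uM forskolin (with 1 mM IBMX, 0.25% BSA) over 30 min at 37 °C in human CB2R-expressing CHO cells. The window runs from forskolin alone to 1 uM CP55940; curves fitted with a four-parameter logistic model.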

T1 sequence (P34972 whole entry): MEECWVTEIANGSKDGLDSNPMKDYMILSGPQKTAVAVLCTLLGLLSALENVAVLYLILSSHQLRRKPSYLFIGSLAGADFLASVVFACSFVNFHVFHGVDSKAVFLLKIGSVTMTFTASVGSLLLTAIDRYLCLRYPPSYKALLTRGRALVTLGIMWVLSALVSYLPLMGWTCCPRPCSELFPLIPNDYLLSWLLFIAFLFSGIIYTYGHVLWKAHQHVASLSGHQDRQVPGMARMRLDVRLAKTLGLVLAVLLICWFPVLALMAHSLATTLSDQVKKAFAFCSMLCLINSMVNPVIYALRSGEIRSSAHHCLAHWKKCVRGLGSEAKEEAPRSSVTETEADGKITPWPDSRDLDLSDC

agonistic activity | SMILES
agonistic activity | CC(C)(C(=O)Nc1nc(C2CCCCC2)cs1)S(=O)(=O)c1ccc(Cl)cc1F [2-[(4-chloro-2-fluorophenyl)sulfonyl]-N-(4-cyclohexyl-1,3-thiazol-2-yl)-2-methylpropanamide]
agonistic activity | CC(C)(C(=O)Nc1nc(C2CC2)cs1)S(=O)(=O)c1ccc(Cl)cc1F [2-[(4-chloro-2-fluorophenyl)sulfonyl]-N-(4-cyclopropyl-1,3-thiazol-2-yl)-2-methylpropanamide]
agonistic activity | CCc1ccnc(NC(=O)C(C)(C)S(=O)(=O)c2ccc(Cl)cc2F)c1 [2-[(4-chloro-2-fluorophenyl)sulfonyl]-N-(4-ethylpyridin-2-yl)-2-methylpropanamide]
agonistic activity | CC(C)(C(=O)Nc1nc(-c2ccc(Cl)cc2)cs1)S(=O)(=O)c1ccc(Cl)cc1F [2-[(4-chloro-2-fluorophenyl)sulfonyl]-N-[4-(4-chlorophenyl)-1,3-thiazol-2-yl]-2-methylpropanamide]
agonistic activity | CC(C)(C(=O)Nc1cc2ccccc2cn1)S(=O)(=O)c1ccc(Cl)cc1F [2-[(4-chloro-2-fluorophenyl)sulfonyl]-N-isoquinolin-3-yl-2-methylpropanamide]
agonistic activity | Cc1ccnc(NC(=O)C(C)(C)S(=O)(=O)c2ccc(Cl)cc2)n1 [2-[(4-chlorophenyl)sulfonyl]-2-methyl-N-(4-methylpyrimidin-2-yl)propanamide]
agonistic activity | CC(C)(C(=O)Nc1nc2c(F)cccc2s1)S(=O)(=O)c1ccc(Cl)cc1 [2-[(4-chlorophenyl)sulfonyl]-N-(4-fluoro-1,3-benzothiazol-2-yl)-2-methylpropanamide]
agonistic activity | CC(C)(C(=O)Nc1ccc(C(F)(F)F)cc1F)S(=O)(=O)c1ccc(Cl)cc1 [2-[(4-chlorophenyl)sulfonyl]-N-[2-fluoro-4-(trifluoromethyl)phenyl]-2-methylpropanamide]
agonistic activity | CC(C)(C(=O)Nc1ccc(C(F)(F)F)c(F)c1)S(=O)(=O)c1ccc(Cl)cc1 [2-[(4-chlorophenyl)sulfonyl]-N-[3-fluoro-4-(trifluoromethyl)phenyl]-2-methylpropanamide]
agonistic activity | CC(C)(C(=O)Nc1nc(-c2ccc(F)cc2)cs1)S(=O)(=O)c1ccc(Cl)cc1 [2-[(4-chlorophenyl)sulfonyl]-N-[4-(4-fluorophenyl)-1,3-thiazol-2-yl]-2-methylpropanamide]
agonistic activity | Cc1sc(NC(=O)C(C)(C)S(=O)(=O)c2ccc(Cl)cc2)nc1-c1ccc(F)cc1 [2-[(4-chlorophenyl)sulfonyl]-N-[4-(4-fluorophenyl)-5-methyl-1,3-thiazol-2-yl]-2-methylpropanamide]
agonistic activity | CCCc1cc(NC(=O)C(C)(C)S(=O)(=O)c2ccc(OC)cc2)on1 [2-[(4-methoxyphenyl)sulfonyl]-2-methyl-N-(3-propylisoxazol-5-yl)propanamide]
agonistic activity | COc1ccc(S(=O)(=O)C(C)(C)C(=O)Nc2cccc(C(F)(F)F)n2)cc1 [2-[(4-methoxyphenyl)sulfonyl]-2-methyl-N-[6-(trifluoromethyl)pyridin-2-yl]propanamide]
agonistic activity | CCCc1cc(NC(=O)C(C)(C)S(=O)(=O)c2ccc(S(C)(=O)=O)cc2)on1 [2-methyl-2-{[4-(methylsulfonyl)phenyl]sulfonyl}-N-(3-propylisoxazol-5-yl)propanamide]
agonistic activity | CC(C)(C(=O)Nc1nc2c(s1)CCCC2)S(=O)(=O)c1ccc(S(C)(=O)=O)cc1 [2-methyl-2-{[4-(methylsulfonyl)phenyl]sulfonyl}-N-(4,5,6,7-tetrahydro-1,3-benzothiazol-2-yl)propanamide]
agonistic activity | CC(C)(C(=O)Nc1cccc(C(F)(F)F)c1)S(=O)(=O)c1ccc(S(C)(=O)=O)cc1 [2-methyl-2-{[4-(methylsulfonyl)phenyl]sulfonyl}-N-[3-(trifluoromethyl)phenyl]propanamide]
agonistic activity | CC(C)(C(=O)Nc1nc(C(F)(F)F)cs1)S(=O)(=O)c1ccc(S(C)(=O)=O)cc1 [2-methyl-2-{[4-(methylsulfonyl)phenyl]sulfonyl}-N-[4-(trifluoromethyl)-1,3-thiazol-2-yl]propanamide]
agonistic activity | CC(C)(C(=O)Nc1cc(C(F)(F)F)ccn1)S(=O)(=O)c1ccc(S(C)(=O)=O)cc1 [2-methyl-2-{[4-(methylsulfonyl)phenyl]sulfonyl}-N-[4-(trifluoromethyl)pyridin-2-yl]propanamide]
agonistic activity | CC(C)(C(=O)Nc1ccc(C(F)(F)F)cn1)S(=O)(=O)c1ccc(S(C)(=O)=O)cc1 [2-methyl-2-{[4-(methylsulfonyl)phenyl]sulfonyl}-N-[5-(trifluoromethyl)pyridin-2-yl]propanamide]
agonistic activity | CC(C)(C(=O)Nc1cccc(C(F)(F)F)n1)S(=O)(=O)c1ccc(S(C)(=O)=O)cc1 [2-methyl-2-{[4-(methylsulfonyl)phenyl]sulfonyl}-N-[6-(trifluoromethyl)pyridin-2-yl]propanamide]
agonistic activity | CC(C)(C(=O)Nc1nc(C(F)(F)F)cs1)S(=O)(=O)c1ccc(C(F)(F)F)nc1 [2-methyl-2-{[6-(trifluoromethyl)pyridin-3-yl]sulfonyl}-N-[4-(trifluoromethyl)-1,3-thiazol-2-yl]propanamide]
agonistic activity | CC(C)(C(=O)Nc1cccc2ccccc12)S(=O)(=O)c1ccc(C(F)(F)F)nc1 [2-methyl-N-1-naphthyl-2-{[6-(trifluoromethyl)pyridin-3-yl]sulfonyl}propanamide]
agonistic activity | Cn1nc(-c2ccccc2)cc1NC(=O)C(C)(C)S(=O)(=O)c1ccc(S(C)(=O)=O)cc1 [2-methyl-N-(1-methyl-3-phenyl-1H-pyrazol-5-yl)-2-{[4-(methylsulfonyl)phenyl]sulfonyl}propanamide]
agonistic activity | CC(C)(C(=O)Nc1nc(-c2ccccc2)cs1)S(=O)(=O)c1ccc(C(F)(F)F)nc1 [2-methyl-N-(4-phenyl-1,3-thiazol-2-yl)-2-{[6-(trifluoromethyl)pyridin-3-yl]sulfonyl}propanamide]

SMILES | agonistic activity
CC(C)(C)Cc1cc(NC(=O)C(C)(C)S(=O)(=O)c2ccc(Cl)cc2F)on1 [2-[(4-chloro-2-fluorophenyl)sulfonyl]-N-[3-(2,2-dimethylpropyl)isoxazol-5-yl]-2-methylpropanamide] | agonistic activity
CC(C)(C(=O)Nc1nc2ccc(F)cc2s1)S(=O)(=O)c1ccc(Cl)cc1 [2-[(4-chlorophenyl)sulfonyl]-N-(6-fluoro-1,3-benzothiazol-2-yl)-2-methylpropanamide] | agonistic activity
CC(C)(C(=O)Nc1ccc(F)c(C(F)(F)F)c1)S(=O)(=O)c1ccc(Cl)cc1 [2-[(4-chlorophenyl)sulfonyl]-N-[4-fluoro-3-(trifluoromethyl)phenyl]-2-methylpropanamide] | agonistic activity
CCCc1cc(NC(=O)C(C)(C)S(=O)(=O)c2ccc(C(F)(F)F)nc2)on1 [2-methyl-N-(3-propylisoxazol-5-yl)-2-{[6-(trifluoromethyl)pyridin-3-yl]sulfonyl}propanamide] | agonistic activity
